Values after ≈ are worked out from the molar mass of the structure shown.
Assays:
[1] = test system: HEL; assay: Minimum inhibitory concentration required to reduce virus induced cytopathicity by 50% was determined against VZV virus in HEL cells; format: functional; conditions: Homo sapiens
[2] = test system: Vero; assay: Minimum inhibitory concentration required to reduce virus induced cytopathicity by 50% was determined against junin virus in Vero cells; format: functional; conditions: Chlorocebus sabaeus
[3] = test system: Vero; assay: Minimum inhibitory concentration required to reduce virus induced cytopathicity by 50% was determined against measles virus in Vero cells; format: functional; conditions: Chlorocebus sabaeus
[4] = test system: E6SM; assay: Minimum inhibitory concentration required to reduce virus induced cytopathicity by 50% was determined against vaccinia virus in E6SM cells; format: functional; conditions: Homo sapiens
[5] = test system: HeLa; assay: Minimum inhibitory concentration required to reduce virus induced cytopathicity by 50% was determined against respiratory syncytial virus in HeLa cells; format: functional; conditions: Homo sapiens
[6] = test system: Vero; assay: (§1) Minimum inhibitory concentration required to reduce virus induced cytopathicity by 50% was determined against parainfluenza 3 virus in Vero cells; format: functional, Homo sapiens; conditions: Chlorocebus sabaeus
[7] = test system: Influenza A virus; assay: (§2) Minimum inhibitory concentration required to reduce virus induced cytopathicity by 50% was determined against influenza A virus in MDCK cells; format: functional
[8] = test system: Vero; assay: Minimum inhibitory concentration required to reduce virus induced cytopathicity by 50% was determined against semliki forest virus in Vero cells; format: functional; conditions: Chlorocebus sabaeus
[9] = test system: Influenza B virus; assay: (§3) Minimum inhibitory concentration required to reduce virus induced cytopathicity by 50% was determined against influenza B virus in MDCK cells; format: functional
[10] = test system: HeLa; assay: Minimum inhibitory concentration required to reduce virus induced cytopathicity by 50% was determined against polio 1 virus in HeLa cells; format: functional; conditions: Homo sapiens
[11] = test system: E6SM; assay: Minimum inhibitory concentration required to reduce virus induced cytopathicity by 50% was determined against vesicular stomatitis virus in E6SM cells; format: functional; conditions: Homo sapiens
[12] = test system: Vero; assay: Minimum inhibitory concentration required to reduce virus induced cytopathicity by 50% was determined against sindbis virus in Vero cells; format: functional; conditions: Chlorocebus sabaeus
[13] = test system: HeLa; assay: Minimum inhibitory concentration required to reduce virus induced cytopathicity by 50% was determined against coxsackie B4 virus in HeLa cells; format: functional; conditions: Homo sapiens
[14] = test system: E6SM; assay: Minimum inhibitory concentration required to reduce virus induced cytopathicity by 50% was determined against HSV-2 virus in E6SM cells; format: functional; conditions: Homo sapiens
[15] = test system: Vero; assay: Minimum inhibitory concentration required to reduce virus induced cytopathicity by 50% was determined against reo type 1 virus in Vero cells; format: functional; conditions: Chlorocebus sabaeus
[16] = test system: E6SM; assay: Minimum inhibitory concentration required to reduce virus induced cytopathicity by 50% was determined against HSV-1 virus in E6SM cells; format: functional; conditions: Homo sapiens
[17] = species on record: Homo sapiens; assay: (§4) Minimum inhibitory concentration required to reduce virus induced cytopathicity by 50% was determined against HCMV virus in HEL cells; format: functional
[18] = test system: E6SM; assay: Minimum inhibitory concentration required to reduce virus induced cytopathicity by 50% was determined against TK- HSV-1 virus in E6SM cells; format: functional; conditions: Homo sapiens
[19] = test system: Vero; assay: Minimum inhibitory concentration required to reduce virus induced cytopathicity by 50% was determined against coxsackie B4 virus in Vero cells; format: functional; conditions: Chlorocebus sabaeus
[20] = test system: HEL; assay: Minimum inhibitory concentration required to reduce virus induced cytopathicity by 50% was determined against TK- VZV virus in HEL cells; format: functional; conditions: Homo sapiens
[21] = test system: Vero; assay: Minimum inhibitory concentration required to reduce virus induced cytopathicity by 50% was determined against tacaribe virus in Vero cells; format: functional, Homo sapiens; conditions: Chlorocebus sabaeus
[22] = test system: HeLa; assay: Minimum inhibitory concentration required to reduce virus induced cytopathicity by 50% was determined against vesicular stomatitis virus in HeLa cells; format: functional; conditions: Homo sapiens
[23] = test system: MDCK; assay: as §2; format: functional; conditions: Canis lupus familiaris
[24] = test system: MDCK; assay: as §3; format: functional; conditions: Canis lupus familiaris
[25] = test system: HEL; assay: as §4; format: functional; conditions: Homo sapiens
[26] = test system: Vero; assay: as §1; format: functional; conditions: Chlorocebus sabaeus

| Compound | MIC [1] [mg/L] | MIC [2] [mg/L] | MIC [3] [mg/L] | MIC [4] [mg/L] | MIC [5] [mg/L] | MIC [6] [mg/L] | MIC [8] [mg/L] | MIC [10] [mg/L] | MIC [11] [mg/L] | MIC [12] [mg/L] | MIC [13] [mg/L] | MIC [14] [mg/L] | MIC [15] [mg/L] | MIC [16] [mg/L] | MIC [17] [mg/L] | MIC [18] [mg/L] | MIC [19] [mg/L] | MIC [20] [mg/L] | MIC [21] [mg/L] | MIC [22] [mg/L] | also measured |
| --- | --- | --- | --- | --- | --- | --- | --- | --- | --- | --- | --- | --- | --- | --- | --- | --- | --- | --- | --- | --- | --- |
| Oc1ncnc2c1ncn2C1C[C@H](O)[C@H](O)[C@@H]1O (some centres undefined) | 200 (≈ 793 µM) | > 100 | > 100 | > 300 | > 100 | > 200 | > 200 | > 400 | > 300 | > 200 | > 400 | 300 (≈ 1190 µM) | > 200 | 300 (≈ 1190 µM) | 250 (≈ 991 µM) | 200 (≈ 793 µM) | > 200 | 250 (≈ 991 µM) | > 100 | > 400 | MIC [7]: > 100 mg/L; MIC [9]: > 100 mg/L |
| Nc1nc(N)c2ncn(C3C[C@H](O)[C@H](O)[C@@H]3O)c2n1 (some centres undefined) | 230 (≈ 864 µM) | 85 (≈ 319 µM) | 20 (≈ 75.1 µM) | 15 (≈ 56.3 µM) | 50 (≈ 188 µM) | 20 (≈ 75.1 µM) | > 200 | > 400 | 2 (≈ 7.51 µM) | > 200 | > 400 | > 300 | 10 (≈ 37.6 µM) | 300 (≈ 1130 µM) | 250 (≈ 939 µM) | > 200 | > 200 | 165 (≈ 620 µM) | 100 (≈ 376 µM) | 70 (≈ 263 µM) | MIC [23]: > 100 mg/L; MIC [24]: > 100 mg/L |
| Nc1nc(O)c2ncn(C3C[C@H](O)[C@H](O)[C@@H]3O)c2n1 (some centres undefined) | 225 (≈ 842 µM) | > 100 | > 100 | > 400 | > 100 | > 200 | > 200 | > 200 | > 400 | > 200 | > 400 | > 400 | > 200 | 300 (≈ 1120 µM) | 250 (≈ 935 µM) | > 300 | > 200 | 235 (≈ 879 µM) | > 100 | > 400 | MIC [23]: > 100 mg/L; MIC [24]: > 100 mg/L |
| NC(CCS)C(=O)Nc1ncnc2c1ncn2C1O[C@H](CO)[C@@H](O)[C@H]1O (some centres undefined) |  | 2 (≈ 5.2 µM) |  | 2 (≈ 5.2 µM) |  | 0.7 (≈ 1.82 µM) | > 400 | > 400 | 0.7 (≈ 1.82 µM) | 20 (≈ 52 µM) | > 400 | > 400 | 2 (≈ 5.2 µM) | > 400 |  | > 400 | > 100 |  | 2 (≈ 5.2 µM) | 2 (≈ 5.2 µM) |  |
| O=c1[nH]c(=O)n([C@H]2C[C@H](O)[C@@H](CO)O2)cc1/C=C/Br [BRIVUDINE] | 0.001 (≈ 0.003 µM) | > 400 | > 400 | 7 (≈ 21 µM) | > 400 |  | > 400 |  | > 400 | > 400 | > 400 | 10 (≈ 30 µM) | > 400 | 0.02 (≈ 0.06 µM) |  | 40 (≈ 120 µM) | > 400 | > 10 |  | > 400 |  |
| Nc1ncnc2c1ncn2[C@@H]1C=C(CO)[C@@H](O)[C@H]1O [NEOPLANOCIN A] | 8 (≈ 30.4 µM) | 0.4 (≈ 1.52 µM) | 0.2 (≈ 0.76 µM) | 0.2 (≈ 0.76 µM) | 0.2 (≈ 0.76 µM) | 0.4 (≈ 1.52 µM) | > 40 | > 10 | 0.2 (≈ 0.76 µM) | > 40 | > 40 | > 40 | 0.4 (≈ 1.52 µM) | > 40 |  | 4 (≈ 15.2 µM) | > 40 | 5 (≈ 19 µM) | 0.4 (≈ 1.52 µM) | 0.2 (≈ 0.76 µM) | MIC [23]: > 20 mg/L; MIC [24]: > 20 mg/L; MIC [25]: 0.4 mg/L (≈ 1.52 µM) |
| Nc1ncnc2c1ncn2[C@@H]1C[C@H](O)[C@@H](O)[C@H]1O [NORARISTEROMYCIN] | 65 (≈ 259 µM) | 0.5 (≈ 1.99 µM) | 0.4 (≈ 1.59 µM) | 0.3 (≈ 1.19 µM) | 2 (≈ 7.96 µM) | 0.4 (≈ 1.59 µM) | > 200 | > 200 | 0.07 (≈ 0.279 µM) | > 200 | > 200 | 300 (≈ 1190 µM) | 0.07 (≈ 0.279 µM) | 200 (≈ 796 µM) | 0.4 (≈ 1.59 µM) | 20 (≈ 79.6 µM) | > 200 | 40 (≈ 159 µM) | 1 (≈ 3.98 µM) | 0.07 (≈ 0.279 µM) | MIC [23]: > 100 mg/L; MIC [24]: > 100 mg/L |
| NC(=O)c1ncn([C@@H]2O[C@H](CO)[C@@H](O)[C@H]2O)n1 [RIBAVIRIN] |  |  |  | 40 (≈ 164 µM) |  |  | 40 (≈ 164 µM) | 70 (≈ 287 µM) | 70 (≈ 287 µM) | 40 (≈ 164 µM) | 70 (≈ 287 µM) | > 400 | 70 (≈ 287 µM) | > 400 |  | > 400 | 100 (≈ 409 µM) |  |  | 20 (≈ 81.9 µM) | MIC [26]: 20 mg/L (≈ 81.9 µM) |

— ChEMBL document CHEMBL1126305, “Synthesis and antiviral properties of (+/-)-5'-noraristeromycin and related purine carbocyclic nucleosides. A new lead for anti-human cytomegalovirus agent design” (1992)
